# Columns and labels:
# [1] = molecular target: T1, TDP-43 aggregates in ALS brain sections (Homo sapiens, UniProt Q13148); test: Pathological staining, colocalization with anti-TDP-43 antibody; conditions: brain sections from an ALS patient
# T1 construct: from tissue; host or cells: paraffin sections of human ALS patient brain
# Protocol: (§1) Human brain tissues of AD or ALS patients and human neuroblastoma tissues were immersed in xylene three times for 5 min to remove paraffin, followed by two 10 min washes with a series of diluted alcohols (100, 90%, 70%, and 50% ethanol in dd water, v/v). Following PBS washing, heat‐mediated antigen retrieval was per‐ formed in 10 mM citrate buffer (pH 9.0) using a temperature‐gradient protocol: samples were gradually heated to boiling point through sequential low‐to‐high intensity thermal exposure (total 15 min duration), followed by natural cooling to ambient temperature. […] To avoid the fluorescence overlap between antibody staining and probe labeling, specific secondary antibodies were selected. […]
# (§2) The fluorescence images of tissues were acquired by a scanning microscope (KF‐FL‐020, KFBIO).
# (§3) All experiments were conducted over 3–5 independent experiments, and error bars represent the S.E.M across these runs. […] Statistical analysis was performed using GraphPad Prism 8.3.0, with significance determined by one‐way ANOVA followed by Tukey's or Dunnett's post hoc tests. […] Colocalization analysis was performed using the Pearson's correlation coefficient (PCC) calculated via ImageJ software.
# [2] = Photophysical property characterization (absorption/emission spectra, quantum yield); type: physicochemical; conditions: for λAbs b, spectra assays data / λEm b, spectra assays data / ε: acetonitrile (MeCN); for λAbs b, spectra assays data / λEm b, spectra assays data: 10 µM, Extended Data Table 1; for ε: in M-1·cm-1 (unit assumed)
# Protocol: For absorption and emission spectra measurements, the molecules were diluted to 10 µM in various solvents, including EtOH, DMSO, MeCN, H2O, and MeOH. Prior to analysis, the prepared samples were equilibrated at 25°C for 5 min to ensure consistent conditions. Subsequently, their absorption and emission spectra were measured. The absolute fluorescence quantum yield of these probes was measured using the FLS1000 Photoluminescence Spectrometer (Edinburgh Instruments Ltd.).
# [3] = molecular target: T2, TDP-43 aggregates (Homo sapiens, UniProt Q13148); test: Fluorescence turn-on response / spectral assay with TDP-43 aggregates; type: binding
# T2 construct: purchased Sangon Biotech
# T2 sequence (Q13148 whole entry): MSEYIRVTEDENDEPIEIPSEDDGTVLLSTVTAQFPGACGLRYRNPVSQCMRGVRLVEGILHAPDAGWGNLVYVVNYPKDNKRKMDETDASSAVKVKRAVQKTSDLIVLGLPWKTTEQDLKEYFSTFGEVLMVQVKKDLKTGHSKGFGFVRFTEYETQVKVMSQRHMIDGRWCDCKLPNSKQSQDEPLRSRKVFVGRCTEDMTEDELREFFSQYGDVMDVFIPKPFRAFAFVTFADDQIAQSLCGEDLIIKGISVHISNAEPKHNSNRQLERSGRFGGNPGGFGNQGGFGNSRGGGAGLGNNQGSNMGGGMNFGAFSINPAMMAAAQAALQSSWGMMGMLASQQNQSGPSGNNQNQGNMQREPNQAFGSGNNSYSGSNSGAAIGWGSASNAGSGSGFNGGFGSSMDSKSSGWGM
# Protocol: (§4) To evaluate the fluorescence turn‐on responses to targets, protein (2 µM) were incubated with probe solutions (2 µM, PBS containing 10% DMSO) for 60 min at room temperature. For probe B3, specific experiments involved co‐incubation of 5 µM B3 with 10 µM TDP‐43 aggregates for 60 min.
# [4] = molecular target: T3, tau aggregates (Homo sapiens, UniProt P10636); test: Fluorescence turn-on response / spectral assay with tau aggregates; type: binding
# T3 construct: purchased QYAOBIO
# T3 sequence (P10636 1-441 isoform P10636-8): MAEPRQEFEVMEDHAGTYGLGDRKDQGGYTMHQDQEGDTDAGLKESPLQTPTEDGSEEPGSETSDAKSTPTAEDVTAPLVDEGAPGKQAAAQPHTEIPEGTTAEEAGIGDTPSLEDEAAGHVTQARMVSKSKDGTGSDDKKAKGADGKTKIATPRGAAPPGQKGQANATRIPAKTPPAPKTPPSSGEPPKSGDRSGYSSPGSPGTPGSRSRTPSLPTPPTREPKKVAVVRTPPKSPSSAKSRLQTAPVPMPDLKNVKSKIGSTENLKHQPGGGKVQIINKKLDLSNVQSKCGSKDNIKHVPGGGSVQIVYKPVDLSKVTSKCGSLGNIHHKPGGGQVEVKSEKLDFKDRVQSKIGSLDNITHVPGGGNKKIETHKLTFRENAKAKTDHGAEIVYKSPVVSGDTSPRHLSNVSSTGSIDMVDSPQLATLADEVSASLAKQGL
# Protocol: as §4
# [5] = test system: tau; conditions: previous reports; ref [36], [37], [38]; cited from earlier work
# [6] = molecular target: tau aggregates in AD brain sections (Homo sapiens, UniProt P10636); test: Pathological staining, colocalization with anti-tau antibody
# Chain of tau aggregates in AD brain sections (P10636 623-695 limits assumed): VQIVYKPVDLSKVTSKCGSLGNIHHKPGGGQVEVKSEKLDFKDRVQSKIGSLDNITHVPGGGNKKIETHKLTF
# Protocol: as §1, §2, §3
# [7] = molecular target: T4, BCL-2 (Homo sapiens, UniProt P10415); conditions: previous reports; ref [36], [37], [38]; cited from earlier work
# T4 sequence (P10415 whole entry, species assumed): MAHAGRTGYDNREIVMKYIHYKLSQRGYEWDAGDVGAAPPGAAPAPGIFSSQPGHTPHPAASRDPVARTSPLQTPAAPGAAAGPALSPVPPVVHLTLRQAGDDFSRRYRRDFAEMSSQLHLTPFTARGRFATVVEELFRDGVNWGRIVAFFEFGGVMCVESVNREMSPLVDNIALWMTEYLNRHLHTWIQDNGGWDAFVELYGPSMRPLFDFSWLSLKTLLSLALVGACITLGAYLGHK
# [8] = molecular target: T5, BCL-2 in neuroblastoma tumor tissue sections (Homo sapiens, UniProt P10415); test: Pathological staining, colocalization with anti-BCL-2 antibody
# T5 construct: from tissue; host or cells: human neuroblastoma tissue sections
# T5 sequence (P10415 whole entry): as the sequence (P10415 whole entry, species assumed) above
# Protocol: as §1, §2, §3
# [9] = molecular target: T6, BCL-2 in U2932 and SU-DHL-6 cells (Homo sapiens, UniProt P10415); test: Cell imaging with anti-BCL-2 co-staining; type: cell-based; conditions: U2932 and SU-DHL-6, 5 µM obatoclax
# T6 construct: endogenous in cells; host or cells: U2932 and SU-DHL-6
# T6 sequence (P10415 whole entry): as the sequence (P10415 whole entry, species assumed) above
# Protocol: Cells of the logarithmic growth phase were taken and transferred them to centrifuge tubes (5 × 10^4 cells/mL). After centrifugation, the culture medium was discarded. Cells were washed once with PBS, centrifuged, and the supernatant aspirated. One milliliter of ice methanol was added, followed by gentle resuspension and fixation for 30 min. After centrifugation, the supernatant was discarded, and cells were washed twice with PBS. Subsequently, 500 µL of 5% BSA blocking solution was added, and cells were gently resuspended before transfer to a 35‐mm confocal dish for sealing and incubation at room temperature for 1 h. The cell suspension was then added into a centrifuge tube, centrifuged to remove blocking solution, and resuspended in 500 µL of primary antibody solution (Proteintech, 12789‐1‐AP, 1:500). Cells were transferred to a confocal dish and incubated overnight at 4°C. After centrifugation to remove primary antibody, cells were washed twice with PBS. Next, 500 µL of secondary antibody (Beyotime, A0468, 1:500) was added, followed by incubation at room temperature for 1 h. Following centrifugation, the cells were washed twice with PBS and stained with 500 µL of DAPI solution (Beyotime, C1006) for 10 min at room temperature. […] After centrifugation, cells were washed twice with PBS, resuspended in 1 mL PBS, transferred to a confocal dish, and imaged with a laser confocal microscope.
# [10] = test system: SU-DHL-6 lymphoma xenografts; test: Tumor model ex vivo fluorescence imaging; type: in vivo, mice; conditions: 10 mg/kg i.v., 4 h post-injection
# Protocol: SU-DHL-6 cells were suspended in 100 μL of 50% Matrigel / PBS mixture. Hun dred microliters of SU-DHL-6 cell suspensions, corresponding to 1.8 × 10^6 cells per mouse, were subcutaneously injected into the left flank region of NSFG mice (female, aged 8-10 weeks). The mice were monitored for tumor formation. […] Mice were sacrificed after 4 h and tissues (heart, liver, spleen, lung, kidney, and tumor) were obtained. The fluorescence signals in tissues were recorded using the […] imaging system.
# [11] = molecular target: T4, BCL-2; test: Fluorescence turn-on response / spectral assay with BCL-2; type: binding
# Protocol: as §4
# T1 sequence (Q13148 whole entry): as the sequence (Q13148 whole entry) above
smiles,measurement,setting,value
Cc1ccc(Cl)cc1NC(=O)c1cc2c(=O)n3cccc(C)c3nc2n1C [B3],PCC with anti-TDP-43 antibody staining,[1],0.95
same,Quantum yield experimental,[2]; MeCN,0.2891
same,log10ε experimental,[2]; MeCN,4.2923
same,"λAbs b, spectra assays data",[2],370 nm
same,"λEm b, spectra assays data",[2],443 nm
same,ε,[2],19600
same,Blue shift of emission upon interaction with TDP-43 aggregates,[3],30 nm
same,Fluorescence turn-on response to TDP-43 aggregates,[3],most significant fluorescence enhancement
Cn1c(C(=O)Nc2ccc(OC(F)(F)F)cc2)cc2c(=O)n3ccccc3nc21 [B5],"λAbs b, spectra assays data",[2],382 nm
same,"λEm b, spectra assays data",[2],450 nm
same,ε,[2],19800
Cc1ccc(-n2c(/C=C\c3ccc(F)c(F)c3)nc3ccccc3c2=O)c(C)c1 [B6],"λAbs b, spectra assays data",[2],330 nm
same,"λEm b, spectra assays data",[2],450 nm
same,ε,[2],20200
COc1cc(OCc2ccccn2)ccc1/C=C/c1cc(/C=C/c2ccc3cc[nH]c3c2)[nH]n1 [PE859],λAbs,[2]; DMSO,343 nm
same,λEm,[2]; DMSO,408 nm
same,λAbs,"[2]; EtOH, Extended Data Table 5",335 nm
same,λEm,"[2]; EtOH, Extended Data Table 5",397 nm
same,λAbs,"[2]; H2O, Extended Data Table 5",352 nm
same,λEm,"[2]; H2O, Extended Data Table 5",422 nm
same,Quantum yield experimental,[2]; MeCN,0.1223
same,log10ε experimental,[2]; MeCN,4.9675
same,λAbs,"[2]; MeCN, Extended Data Table 5",338 nm
same,λEm,"[2]; MeCN, Extended Data Table 5",402 nm
same,λAbs,"[2]; MeOH, Extended Data Table 5",337 nm
same,λEm,"[2]; MeOH, Extended Data Table 5",410 nm
same,"λAbs b, spectra assays data",[2],335 nm
same,ε,[2],92780
same,Blue shift in emission maximum upon binding to tau aggregates,[4],10 nm
same,Fluorescence turn-on response to tau aggregates,[4],most significant fluorescence enhancement
same,IC50,[5],660 nM
same,Pearson Correlation Coefficient (PCC) with anti-tau antibody staining,[6],0.85
COC1=CC(c2cc3ccccc3[nH]2)=N/C1=C\c1[nH]c(C)cc1C [obatoclax],Quantum yield experimental,[2]; MeCN,0.0069
same,log10ε experimental,[2]; MeCN,4.5902
same,"λAbs b, spectra assays data",[2],480 nm
same,"λEm b, spectra assays data",[2],540 nm
same,ε,[2],38920
same,Ki,[7],220 nM
same,PCC with anti-BCL-2 antibody staining,[8],0.80
same,Detection of BCL-2 in overexpressing cell lines,[9],effectively detected
same,Accumulation in tumors versus other organs,[10],higher accumulation in tumors compared to other organs
same,Blue shift of emission in the presence of BCL-2,[11],7 nm
same,Fluorescence turn-on response to BCL-2,[11],most significant fluorescence enhancement

# Source: PMC12915096, “AI‐Driven Acceleration of Fluorescence Probe Discovery” (Advanced Science, 2025)
